According to patent US11660286B2, “Methods and compositions comprising a nitrite-reductase promoter for treatment of medical disorders and preservation of blood products” (EpicentRx, Inc., priority 2011, dated 2023):
Read-outs that look alike come from different tables or passages of the source.

How the values were obtained:
blood sample = experiment: Nitric oxide production in a sample of blood with sodium nitrite (Tonometer, chemiluminescent NO analysis); format: cell-based; conditions: anaerobic conditions (N2 atmosphere), 30 min, 37° C., compared to without ABDNAZ or with ABDNAZ under air
Protocol: The ability of ABDNAZ to increase nitric oxide production in a sample of blood under aerobic conditions and anaerobic conditions was evaluated.
A 0.5 mL aliquot of blood was placed in a tonometer. ABDNAZ (5 μL of a 300 mM solution of ABDNAZ in dimethylsulfoxide) was optionally added to the blood sample in the Tonometer. Sodium nitrite was added to the blood sample to achieve a sodium nitrite concentration of 167 mM. Gas (either air or N2) was passed through the Tonometer at a flow rate of 150 mL/min. Gas exiting the Tonometer was collected in three-minute intervals for a period of thirty minutes. The amount of nitric oxide in each of the collected fractions was measured by a chemiluminescent reaction with ozone in a Sievers Nitric Oxide Analyzer. The amount of nitric oxide produced from the blood sample was expressed per mole of hemoglobin present in the blood sample. All experiments were performed at 37° C.
The amount of hemoglobin (Hb) and hematocrit (Het) in the blood sample was determined using an Advia analyzer.

hemorrhagic shock [1] = experiment: Resuscitation from hemorrhagic shock, hamster window chamber model: systemic parameters; conditions: for BP / HR / Hb / Hct / Lactate / pCO2 / pO2 / pH: mean ± SD; for pH: arterial
Protocol: (§1) Experiments were performed in 55-65 g male Golden Syrian Hamsters (Charles River Laboratories, Boston, Mass.) fitted with a dorsal skinfold window chamber. Animal handling and care followed the NIH Guide for the Care and Use of Laboratory Animals. The hamster window chamber model is widely used for microvascular studies in the unanesthetized state. The complete surgical technique is described in detail elsewhere, such as in Colantuoni et al. in Am J Physiol 1984; 246:H508-17. Three to four days after the initial surgery, the microvasculature was examined and only animals passing an established systemic and microcirculatory inclusion criteria, as previously described (e.g., in Cabrales P. Low dose nitrite enhances perfusion after fluid resuscitation from hemorrhagic shock. Resuscitation 2009; 80: 1431-6), were entered into the study.
(§2) Acute hemorrhage was induced by withdrawing 50% of estimated total blood volume (BV) via the carotid artery catheter within 5 min. Total BV was estimated as 7% of body weight. One hour after hemorrhage induction, animals received 25% of BY of resuscitation (200 μl/min) via the jugular vein catheter, implemented with the volume resuscitation strategy defined by the group name, according to the scheme described before.
(§3) Fresh blood was collected from a donor, adult male Golden Syrian Hamsters (60-80 g). Briefly, hamster donors were anaesthetized, left carotid artery catheter was implanted, and blood was allowed to flow into heparinized tubes (sodium heparin 15 IU/mL). RBCs and plasma were separated by centrifugation (2700 rpm, 7 min). Buffy coat was discarded. RRx-001 treated cells were prepared by incubation of 1 mL of packed cells with 2 mg of RRx-001 for 30 minutes at 4° C., cells were rinsed 2× by centrifugation at 3,000 rpm with phosphate buffer saline (PBS) solution with 0.5% albumin (pre-filtered 0.22 μm, pH 7.4). After the final wash, red blood cells (RBCs) were adjusted to a 30% Het with fresh plasma.
(§4) For the groups that received “nitrite,” 10 μM (in saline 100 μL) of sodium nitrite in saline was infused via the carotid artery catheter 10 minutes after resuscitation for the groups that received nitrite. An equal volume of saline was given to the other groups. To address effects of instrumentation and observation, an additional Sham group was included.
(§5) Conscious animal was placed in a restraining tube with a longitudinal slit from which the window chamber protruded, then fixed to the microscopic stage for transillumination with the intravital microscope (BX51WI, Olympus, New Hyde Park, N.Y.). Animals were given 20 min to adjust to the tube environment before any measurements were made. The tissue image was projected onto a charge-coupled device camera (4815, COHU, San Diego, Calif.) connected to a videocassette recorder and viewed on a monitor. Measurements were carried out using a 40× (LUMPFL-WIR, numerical aperture 0.8, Olympus) water immersion objective. Systemic (MAP, HR, Het, Hb, PaO2, PaCO2, pH, lactate, plasma nitrite, and metHb) and microvascular (artciorlar and venular diameters, blood flow, and FCD) parameters were analyzed, as previously described (e.g., in P. Nachuraju et al. in Resuscitation 2011; 82:607-613; Cabrales P. in Resuscitation 2009; 80:1431-6; Cabrales et al. in Shock 2007; 27:380-9; and Cabrales et al. in Am J Physiol 2004; 287:H363-73) before hemorrhage (baseline), after hemorrhage (shock), and up to 90 min after volume replacement (resuscitation). Tissue viability was measured at 8 hours following hemorrhage as described previously (e.g., in Yang et al. In Invest Ophthalmol Vis Sci 2003; 44:1993-1997; and Cabrales et al. in Antioxid Redox Signal 2007; 9:375-84).
(§6) Table and figure results are presented as mean±SD.

hemorrhagic shock [2] = experiment: Resuscitation from hemorrhagic shock, hamster window chamber model: microvascular measurements; format: in vivo, Golden Syrian Hamsters; conditions: for functional capillary density (FCD), baseline average and standard deviation: before hemorrhage (FIG. 11)
Protocol: as §1, §2, §3, §4, §5, §6

hemorrhagic shock [3] = format: in vivo, Golden Syrian Hamsters
Protocol: as §1
Acute hemorrhage was induced by withdrawing 50% of estimated total blood volume (BV) via the carotid artery catheter within 5 min. Total BV was estimated as 7% of body weight. […]
as §5, with “Animals were given 20 min to adjust to the tube environment before any measurements were made. The tissue image was projected onto a charge-coupled device camera (4815, COHU, San Diego, Calif.) connected to a videocassette recorder and viewed on a monitor. Measurements were carried out using a 40× (LUMPFL-WIR, numerical aperture 0.8, Olympus) water immersion objective.” left out, “9:375-84). […]” for “9:375-84).”

hemorrhagic shock [4] = conditions: 50 μM nitrite, previous study, cited from earlier work
[5] = Shock (50 min), after hemorrhage, before resuscitation
[6] = Shock (50 min), before resuscitation
[7] = 60 minutes following resuscitation
[8] = 90 minutes following resuscitation
[9] = 8 hours following resuscitation, cells in 40 fields

O=C(CBr)N1CC([N+](=O)[O-])([N+](=O)[O-])C1 [RRx-001]
amount of nitric oxide produced by the blood sample (blood sample): significant increase | metHb levels (hemorrhagic shock [1]; 60 and 90 minutes post fluid resuscitation (FIG. 9), normal about 1% of total Hb): normal | MAP compared to the blood group (hemorrhagic shock [1]; 30 minutes following resuscitation): only decreased at 30 minutes | metHb levels (hemorrhagic shock [1]; 60 minutes following resuscitation, RRx-001 treated blood): 1.4±0.1% | pH compared to the blood group (hemorrhagic shock [1]; 60 minutes post resuscitation): significantly increased | blood pressure (MAP) after resuscitation from shock (hemorrhagic shock [1]; 60 minutes, comparator not stated): significantly decreased | metHb levels (hemorrhagic shock [1]; 90 minutes following resuscitation, RRx-001 treated blood): 1.2±0.1% | pO2 levels compared to the blood group (hemorrhagic shock [1]; 90 minutes post resuscitation): significantly increased | BP (hemorrhagic shock [1]; Baseline (before hemorrhage)): 106.3 ± 8.7 mmHg | HR (hemorrhagic shock [1]; Baseline (before hemorrhage)): 409 ± 21 bpm | Hb (hemorrhagic shock [1]; Baseline (before hemorrhage)): 15.1 ± 0.3 g/dL | Hct (hemorrhagic shock [1]; Baseline (before hemorrhage)): 49.7 ± 1.0% | Lactate (hemorrhagic shock [1]; Baseline (before hemorrhage)): 1.39 ± 0.20 mmol/L | pCO2 (hemorrhagic shock [1]; Baseline (before hemorrhage)): 54.2 ± 1.8 mmHg | pO2 (hemorrhagic shock [1]; Baseline (before hemorrhage)): 59.9 ± 2.5 mmHg | blood pressure following resuscitation (hemorrhagic shock [1]; RRx-001 treated blood, current study): maintained blood pressure | BP (hemorrhagic shock [1]; Resuscitation (30 min)): 92.5 ± 6.7 mmHg | HR (hemorrhagic shock [1]; Resuscitation (30 min)): 436 ± 12 bpm | BP (hemorrhagic shock [1]; Resuscitation (60 min)): 98.5 ± 7.6 mmHg | HR (hemorrhagic shock [1]; Resuscitation (60 min)): 444 ± 10 bpm | Hb (hemorrhagic shock [1]; Resuscitation (60 min)): 9.5 ± 0.2 g/dL | Hct (hemorrhagic shock [1]; Resuscitation (60 min)): 31.1 ± 0.6% | Lactate (hemorrhagic shock [1]; Resuscitation (60 min)): 1.93 ± 0.23 mmol/L | pCO2 (hemorrhagic shock [1]; Resuscitation (60 min)): 48.0 ± 3.1 mmHg | pO2 (hemorrhagic shock [1]; Resuscitation (60 min)): 70.9 ± 3.4 mmHg | BP (hemorrhagic shock [1]; Resuscitation (90 min)): 106.3 ± 9.0 mmHg | HR (hemorrhagic shock [1]; Resuscitation (90 min)): 453 ± 17 bpm | Hb (hemorrhagic shock [1]; Resuscitation (90 min)): 9.5 ± 0.1 g/dL | Hct (hemorrhagic shock [1]; Resuscitation (90 min)): 31.2 ± 0.6% | Lactate (hemorrhagic shock [1]; Resuscitation (90 min)): 1.63 ± 0.23 mmol/L | pCO2 (hemorrhagic shock [1]; Resuscitation (90 min)): 49.0 ± 2.2 mmHg | pO2 (hemorrhagic shock [1]; Resuscitation (90 min)): 68.7 ± 2.9 mmHg | BP (hemorrhagic shock [1]; [5]): 46.3 ± 4.0 mmHg | HR (hemorrhagic shock [1]; [5]): 422.5 ± 25 bpm | Hb (hemorrhagic shock [1]; [5]): 8.9 ± 0.3 g/dL | Hct (hemorrhagic shock [1]; [5]): 29.0 ± 0.8% | Lactate (hemorrhagic shock [1]; [6]): 4.16 ± 0.39 mmol/L | pCO2 (hemorrhagic shock [1]; [6]): 39.3 ± 1.2 mmHg | pO2 (hemorrhagic shock [1]; [6]): 94.9 ± 5.1 mmHg | pH (hemorrhagic shock [1]; Baseline (before hemorrhage)): 7.32 ± 0.01 | pH (hemorrhagic shock [1]; Resuscitation (60 min)): 7.39 ± 0.01 | pH (hemorrhagic shock [1]; Resuscitation (90 min)): 7.36 ± 0.01 | pH (hemorrhagic shock [1]; [6]): 7.28 ± 0.02 | HR compared to the blood group (hemorrhagic shock [1]; following resuscitation): significantly increased | pCO2 levels compared to the blood group (hemorrhagic shock [1]; following resuscitation): not significantly different | decreases in lactate levels compared to the blood group (hemorrhagic shock [1]; post-resuscitation): did not reach significance | blood flow compared to the blood group (hemorrhagic shock [2]; [7]): significantly (P<0.001) increased | blood flow compared to the blood group (hemorrhagic shock [2]; [8]): significantly (P<0.001) increased | functional capillary density (FCD) compared to the blood group (hemorrhagic shock [2]; 90 minutes post resuscitation): significant (P<0.05 and P<0.01, respectively) increases | functional capillary density (FCD), baseline average and standard deviation (hemorrhagic shock [2]): 112±9 | number of apoptotic cells compared to the blood group (hemorrhagic shock [3]; [9]): significantly (P<0.01) less | number of necrotic cells compared to the blood group (hemorrhagic shock [3]; [9]): significantly (P<0.01) less

O=NO [Nitrite, sodium nitrite]
BP (hemorrhagic shock [1]; Baseline (before hemorrhage)): 104.3 ± 9.0 mmHg | HR (hemorrhagic shock [1]; Baseline (before hemorrhage)): 428 ± 13 bpm | Hb (hemorrhagic shock [1]; Baseline (before hemorrhage)): 15.2 ± 0.3 g/dL | Hct (hemorrhagic shock [1]; Baseline (before hemorrhage)): 49.8 ± 0.8% | Lactate (hemorrhagic shock [1]; Baseline (before hemorrhage)): 1.30 ± 0.13 mmol/L | pCO2 (hemorrhagic shock [1]; Baseline (before hemorrhage)): 52.9 ± 1.2 mmHg | pO2 (hemorrhagic shock [1]; Baseline (before hemorrhage)): 60.5 ± 1.0 mmHg | BP (hemorrhagic shock [1]; Resuscitation (30 min)): 91.3 ± 6.9 mmHg | HR (hemorrhagic shock [1]; Resuscitation (30 min)): 438 ± 21 bpm | BP (hemorrhagic shock [1]; Resuscitation (60 min)): 96.3 ± 7.5 mmHg | HR (hemorrhagic shock [1]; Resuscitation (60 min)): 447 ± 21 bpm | Hb (hemorrhagic shock [1]; Resuscitation (60 min)): 9.5 ± 0.2 g/dL | Hct (hemorrhagic shock [1]; Resuscitation (60 min)): 31.0 ± 0.7% | Lactate (hemorrhagic shock [1]; Resuscitation (60 min)): 1.95 ± 0.11 mmol/L | pCO2 (hemorrhagic shock [1]; Resuscitation (60 min)): 48.3 ± 2.2 mmHg | pO2 (hemorrhagic shock [1]; Resuscitation (60 min)): 76.0 ± 2.9 mmHg | BP (hemorrhagic shock [1]; Resuscitation (90 min)): 94.7 ± 6.5 mmHg | HR (hemorrhagic shock [1]; Resuscitation (90 min)): 459 ± 14 bpm | Hb (hemorrhagic shock [1]; Resuscitation (90 min)): 9.6 ± 0.1 g/dL | Hct (hemorrhagic shock [1]; Resuscitation (90 min)): 31.5 ± 0.4% | Lactate (hemorrhagic shock [1]; Resuscitation (90 min)): 1.71 ± 0.20 mmol/L | pCO2 (hemorrhagic shock [1]; Resuscitation (90 min)): 45.0 ± 2.4 mmHg | pO2 (hemorrhagic shock [1]; Resuscitation (90 min)): 65.2 ± 3.0 mmHg | BP (hemorrhagic shock [1]; [5]): 46.1 ± 3.6 mmHg | HR (hemorrhagic shock [1]; [5]): 455 ± 21 bpm | Hb (hemorrhagic shock [1]; [5]): 8.9 ± 0.1 g/dL | Hct (hemorrhagic shock [1]; [5]): 29.2 ± 0.5% | Lactate (hemorrhagic shock [1]; [6]): 4.52 ± 0.58 mmol/L | pCO2 (hemorrhagic shock [1]; [6]): 38.9 ± 1.3 mmHg | pO2 (hemorrhagic shock [1]; [6]): 93.1 ± 2.8 mmHg | pH (hemorrhagic shock [1]; Baseline (before hemorrhage)): 7.34 ± 0.02 | pH (hemorrhagic shock [1]; Resuscitation (60 min)): 7.38 ± 0.02 | pH (hemorrhagic shock [1]; Resuscitation (90 min)): 7.36 ± 0.02 | pH (hemorrhagic shock [1]; [6]): 7.30 ± 0.01 | HR compared to the blood group (hemorrhagic shock [1]; hamster, in vivo): significantly increased | MAP compared to the blood group (hemorrhagic shock [1]; hamster, in vivo): significantly decreased | decreases in lactate levels compared to the blood group (hemorrhagic shock [1]; hamster, in vivo): did not reach significance | pH compared to the blood group (hemorrhagic shock [1]; hamster, in vivo): significantly increased | pO2 levels compared to the blood group (hemorrhagic shock [1]; hamster, in vivo): significantly increased | functional capillary density (FCD), baseline average and standard deviation (hemorrhagic shock [2]): 107±12 | functional capillary density (FCD) compared to the blood group (hemorrhagic shock [2]; hamster, in vivo): not significantly different | number of necrotic cells compared to the blood group (hemorrhagic shock [3]; hamster, in vivo): significantly reduced | % metHb (hemorrhagic shock [4]; [7]): 5.8±1.8% | Blood pressure compared to 0 μM group (control group) (hemorrhagic shock [4]; [7]): significantly decreased | % metHb (hemorrhagic shock [4]; [8]): 3.1±1.3%
